{
  "source": "patent US10689306B2",
  "about": "“Fertilizer composition and methods of making and using same” (SABIC GLOBAL TECHNOLOGIES B.V., priority 2015, dated 2020)",
  "key": {"[1]": {"settings": "hot climatic region; cited from earlier work"}, "[2]": {"assay": "Thermal stability of NBTPT at urea melt temperature by HPLC", "assay_type": "physicochemical", "settings": "133-135° C., over time", "procedure": "The percentage of intact NBTPT in the sample is shown in each chromatogram.\nCertain fertilizer additives can be unstable and decompose at elevated temperatures. In a conventional manufacturing process, a fertilizer additive is directly exposed to the temperature of a urea melt, which is typically 133-135° C., during the granulation process. […] Accordingly, at least a portion of NBTPT is lost by using conventional methods.\nThe fertilizers and methods disclosed herein protect the fertilizer additive from being directly exposed to the temperature of a urea melt during the manufacturing process. The fertilizer core particle of the fertilizer comprises a binder, which protects the fertilizer additive from being directly exposed to the urea melt and the temperature of the urea melt. As such, the fertilizer additive is protected from the elevated temperature and is less likely to decompose. […] Thus, the fertilizers and methods disclosed herein prevent loss of a fertilizer additive, such as, for example, without limitation, an inhibitor, for example NBTPT, during the manufacturing process.\nThe thermal stability of neat NBTPT and NBTPT contained within a core, as disclosed herein, can be determined by HPLC. […] (133-135° C. is the typical temperature range of a urea melt) and can continuously be analyzed by HPLC every 5 min, until data for 30 min was collected. […]"}, "[3]": {"settings": "cited from earlier work"}, "[4]": {"assay": "Nitrogen loss after 17 days of exposure to Upland Crowley Soil (IFDC)", "procedure": "The nitrogen volatilization was measured in different soils for several samples and compared to products on the market, such as Agrotain®, ESN®, and SuperU®. The samples were tested in Greenville soil, Crowley soil, and Brownfield Soil.\nCrowley soil consists of very deep, somewhat poorly drained, very slowly permeable soils that formed in clayey fluviomarine deposits of the Pleistocene age. The soil exist in nearly level to very gently sloping soils and occur on flat coastal plains terraces. The slope is dominantly less than 1 percent but ranges to up to 3 percent. The mean annual precipitation is about 1549 mm (61 in), and the mean annual air temperature is about 20 degrees c. (68 degrees F.), where the soil is found. The soil is fine, smectitic, and thermic Typic Albaqualfs."}},
  "data": [
    {"smiles": "N#CN=C(N)N", "note": "[DCD, dicyandiamide]", "values": [
      {"measurement": "thermal stability in the soil", "setting": "[1]", "value": "thermal instability"}
    ]},
    {"smiles": "CCCCNP(N)(N)=S", "note": "[NBTPT, N-(n-butyl) thiophosphoric triamide]", "values": [
      {"measurement": "thermal stability of neat NBTPT", "setting": "[2]; neat, FIG. 13", "value": "decomposes"},
      {"measurement": "thermal stability of NBTPT within a fertilizer core particle", "setting": "[2]; within a core, FIG. 14", "value": "stable over time and does not decompose"},
      {"measurement": "stability under acidic pH", "setting": "[3]", "value": "unstable"}
    ]},
    {"smiles": "NC(N)=O", "note": "[Urea, urea]", "values": [
      {"measurement": "Cumulative Nitrogen Loss (mg) by 17 Days", "setting": "[4]; 17 days of exposure to Upland Crowley Soil", "value": 299.08, "unit": "mg"},
      {"measurement": "% Urea", "setting": "[4]; nitrogen loss relative to urea (100), 17 days, Upland Crowley Soil", "value": 100, "unit": "%"},
      {"measurement": "% Reduction in Nitrogen Loss", "setting": "[4]; versus urea, 17 days, Upland Crowley Soil", "value": 0, "unit": "%"}
    ]}
  ]
}
